The values that follow come from paper PMC9047634 (RSC Advances, 2019).

The experiment concerns the target chorismate mutase (CM) (Mycobacterium tuberculosis, UniProt P9WIB9). The experiment is described as follows: biochemical. The following applies: read-out: % Inhibition @ 30 μM ^a.

Sequence of chorismate mutase (CM) (P9WIB9 34-199): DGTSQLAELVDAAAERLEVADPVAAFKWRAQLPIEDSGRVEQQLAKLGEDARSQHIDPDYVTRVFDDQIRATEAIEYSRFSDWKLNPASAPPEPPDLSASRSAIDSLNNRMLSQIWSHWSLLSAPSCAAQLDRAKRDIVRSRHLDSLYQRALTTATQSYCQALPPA

Broadly, the inhibition is the drop in the measured response relative to a control, in per cent. `COc1ccc(CCNc2c([N+](=O)[O-])cc(C(=O)O)cc2S(N)(=O)=O)cc1OC` [G, 4-(3,4-dimethoxyphenethylamino)-3-nitro-5-sulfamoylbenzoic acid]: the inhibition at 30 µM worked out at 57%.
